In US20250144078A1, “THIOSTREPTON-INSPIRED COMPOUNDS FOR TREATMENT OF CANCER AND PREPARATION THEREOF” (RS Oncology, llc, priority 2022, published 2025):
Where a name gives a salt, the structure may show the parent alone.

Tests used:
PRX3 = target: T1, PRX3 (Homo sapiens, UniProt P30048); test: PRX3 crosslinking study (western blot) in Malignant Mesothelioma cells; format: cell-based; settings: H-MESO cells treated 24 hours, reducing SDS-PAGE, anti-PRX3 western blot; TS at 2.5 or 5 μM
T1 construct: endogenous in cells; host or cells: H-MESO (HMESO) malignant mesothelioma cell line
T1 sequence (P30048 62-256): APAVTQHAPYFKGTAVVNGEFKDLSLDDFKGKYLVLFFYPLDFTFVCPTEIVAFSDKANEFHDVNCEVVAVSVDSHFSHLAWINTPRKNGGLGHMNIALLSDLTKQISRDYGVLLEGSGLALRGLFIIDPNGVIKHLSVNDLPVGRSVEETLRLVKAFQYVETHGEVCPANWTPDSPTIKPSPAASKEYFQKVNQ
Procedure: Malignant Mesothelioma (MM) cells (H-MESO cell line) were plated into 6-well plates in complete tissue culture media. Cells were allowed to adhere for 24 hours before being treated with indicated concentrations of thiostrepton (TS), (1) or (5) (DMSO Stocks) for 24 hours. Cell lysates were generated using standard RIPA buffer, protein concentrations were determined using a Bradford Assay and 20 μg of total protein per sample were separated by reducing SDS-Polyacrylamide Gel Electrophoresis. Proteins were transferred to a PVDF membrane, blocked with 5% Bovine Serum Albumin (BSA) for 1 hour and incubated with PRX3 primary antibody overnight at 4° C. in 1× Tris Buffered Saline with Tween (TBST). Membranes were washed 3× with 1×TBST and incubated with horseradish peroxidase conjugated (HRP) secondary antibody for 1 hour at room temperature. Membranes were washed 3× in 1×TBST and HRP signal was developed using Enhanced Chemiluminescence and visualized on a GE digital imager.

HMESO mesothelioma cells = test: Cell viability study (crystal violet) in HMESO mesothelioma cells; format: cell-based; settings: Homo sapiens, 48 h incubation, read-out: IC50 (Concentration of drug required to kill 50% of cells)
Procedure: (§1) FIG. 1: Cell viability assay data in Malignant Mesothelioma (MM) cells (HMESO cell line) treated with compound (1)-HCl or (5)-HCl. N=2 technical and 2 biological replicates conducted by 2 different lab technicians. All compounds went into solution in 100% DMSO. (5)-HCl precipitated at concentrations of ˜20-80 μM when added to complete tissue culture media.
Cell Lines were plated in 96-well plates (Corning, Kennebunk, ME, USA) at a density of 2500 cells per well. The following day, cells were treated with test compounds diluted in complete media followed by incubation for 48 h. Post-incubation cells were washed with PBS (Corning Cellgro, Manassas, VA, USA), fixed with 3.0% formaldehyde (Fisher BioReagents, Fair Lawn, NJ, USA) in PBS, and stained for 30 min with 0.1% crystal violet (Acros Organics, Fair Lawn, NJ, USA) in water. Crystal violet stain was removed, and plates were washed with H2O and allowed to dry. To quantify cell viability, plates were imaged using the Lionheart Plate reader (BioTek Instruments, Winooski, VT, USA) and/or analyzed by absorbance at 540 nm (crystal violet dye dissolved in 100% methanol) using the Synergy HTX plate reader (BioTek Instruments, Winooski, VT, USA). […]

[1] = Behaviour of compounds in DMSO and in complete tissue culture media; format: physicochemical; settings: from DMSO stock
Procedure: as §1

Row | concentrations at which compound precipitated when added to complete tissue culture media [1] [µM] | Compound | covalent PRX3 crosslinking (PRX3-X-PRX3) (PRX3) | IC50 (HMESO mesothelioma cells) [µM]
1 | – | C=C(NC(=O)C(=C)NC(=O)c1csc(-c2ccc(N)cc2)n1)C(N)=O [(1)-HCl, N-(3-((3-amino-3-oxoprop-1-en-2-yl)amino)-3-oxoprop-1-en-2-yl)-2-(4-aminophenyl)thiazole-4-carboxamide hydrochloride] | No PRX3-X-PRX3 crosslinking was observed | 748
2 | – | C=C(NC(=O)C(=C)NC(=O)c1csc(C2=N[C@@H]3c4csc(n4)[C@H]4NC(=O)c5csc(n5)[C@H]([C@](C)(O)[C@@H](C)O)NC(=O)[C@H]5CSC(=N5)/C(=C/C)NC(=O)[C@H]([C@@H](C)O)NC(=O)c5csc(n5)[C@]3(CC2)NC(=O)[C@H](C)NC(=O)C(=C)NC(=O)[C@H](C)NC(=O)[C@H]([C@@H](C)CC)N[C@@H]2C=Cc3c([C@H](C)O)cc(nc3[C@H]2O)C(=O)O[C@@H]4C)n1)C(N)=O [TS, thiostrepton] | resulted in covalent PRX3 crosslinking | 1.01
3 | 20 to 80 | C=C(NC(=O)c1csc(-c2ccc(N)cc2)n1)C(=O)NC(=C)C(=O)OC [(5)-HCl, Methyl 2-(2-(2-(4-aminophenyl)thiazole-4-carboxamido)acrylamido)acrylate hydrochloride] | Similar, yet less robust, results | –
